Assay results reported in patent US8569344B2, “N-piperidinyl acetamide derivatives as calcium channel blockers” (Zalicus Pharmaceuticals Ltd., priority 2008, dated 2013).
pIC50: −log10 of the molar value.

Assays:
[1] = target: T1, human α1G T-type channels (Homo sapiens, UniProt O43497); assay: T-type calcium channel block, whole cell patch clamp in HEK cells (α1G); format: cell-based; settings: HEK cells, patch clamp, mainly non-inactivated protocol; values above 10 μM shown as 10 μM, below 0.30 μM shown as 0.30 μM; read-out: T-type Calcium Channel Block α1G IC50
T1 construct: expressed in transfected cells; host or cells: HEK 293
T1 sequence (O43497 whole entry): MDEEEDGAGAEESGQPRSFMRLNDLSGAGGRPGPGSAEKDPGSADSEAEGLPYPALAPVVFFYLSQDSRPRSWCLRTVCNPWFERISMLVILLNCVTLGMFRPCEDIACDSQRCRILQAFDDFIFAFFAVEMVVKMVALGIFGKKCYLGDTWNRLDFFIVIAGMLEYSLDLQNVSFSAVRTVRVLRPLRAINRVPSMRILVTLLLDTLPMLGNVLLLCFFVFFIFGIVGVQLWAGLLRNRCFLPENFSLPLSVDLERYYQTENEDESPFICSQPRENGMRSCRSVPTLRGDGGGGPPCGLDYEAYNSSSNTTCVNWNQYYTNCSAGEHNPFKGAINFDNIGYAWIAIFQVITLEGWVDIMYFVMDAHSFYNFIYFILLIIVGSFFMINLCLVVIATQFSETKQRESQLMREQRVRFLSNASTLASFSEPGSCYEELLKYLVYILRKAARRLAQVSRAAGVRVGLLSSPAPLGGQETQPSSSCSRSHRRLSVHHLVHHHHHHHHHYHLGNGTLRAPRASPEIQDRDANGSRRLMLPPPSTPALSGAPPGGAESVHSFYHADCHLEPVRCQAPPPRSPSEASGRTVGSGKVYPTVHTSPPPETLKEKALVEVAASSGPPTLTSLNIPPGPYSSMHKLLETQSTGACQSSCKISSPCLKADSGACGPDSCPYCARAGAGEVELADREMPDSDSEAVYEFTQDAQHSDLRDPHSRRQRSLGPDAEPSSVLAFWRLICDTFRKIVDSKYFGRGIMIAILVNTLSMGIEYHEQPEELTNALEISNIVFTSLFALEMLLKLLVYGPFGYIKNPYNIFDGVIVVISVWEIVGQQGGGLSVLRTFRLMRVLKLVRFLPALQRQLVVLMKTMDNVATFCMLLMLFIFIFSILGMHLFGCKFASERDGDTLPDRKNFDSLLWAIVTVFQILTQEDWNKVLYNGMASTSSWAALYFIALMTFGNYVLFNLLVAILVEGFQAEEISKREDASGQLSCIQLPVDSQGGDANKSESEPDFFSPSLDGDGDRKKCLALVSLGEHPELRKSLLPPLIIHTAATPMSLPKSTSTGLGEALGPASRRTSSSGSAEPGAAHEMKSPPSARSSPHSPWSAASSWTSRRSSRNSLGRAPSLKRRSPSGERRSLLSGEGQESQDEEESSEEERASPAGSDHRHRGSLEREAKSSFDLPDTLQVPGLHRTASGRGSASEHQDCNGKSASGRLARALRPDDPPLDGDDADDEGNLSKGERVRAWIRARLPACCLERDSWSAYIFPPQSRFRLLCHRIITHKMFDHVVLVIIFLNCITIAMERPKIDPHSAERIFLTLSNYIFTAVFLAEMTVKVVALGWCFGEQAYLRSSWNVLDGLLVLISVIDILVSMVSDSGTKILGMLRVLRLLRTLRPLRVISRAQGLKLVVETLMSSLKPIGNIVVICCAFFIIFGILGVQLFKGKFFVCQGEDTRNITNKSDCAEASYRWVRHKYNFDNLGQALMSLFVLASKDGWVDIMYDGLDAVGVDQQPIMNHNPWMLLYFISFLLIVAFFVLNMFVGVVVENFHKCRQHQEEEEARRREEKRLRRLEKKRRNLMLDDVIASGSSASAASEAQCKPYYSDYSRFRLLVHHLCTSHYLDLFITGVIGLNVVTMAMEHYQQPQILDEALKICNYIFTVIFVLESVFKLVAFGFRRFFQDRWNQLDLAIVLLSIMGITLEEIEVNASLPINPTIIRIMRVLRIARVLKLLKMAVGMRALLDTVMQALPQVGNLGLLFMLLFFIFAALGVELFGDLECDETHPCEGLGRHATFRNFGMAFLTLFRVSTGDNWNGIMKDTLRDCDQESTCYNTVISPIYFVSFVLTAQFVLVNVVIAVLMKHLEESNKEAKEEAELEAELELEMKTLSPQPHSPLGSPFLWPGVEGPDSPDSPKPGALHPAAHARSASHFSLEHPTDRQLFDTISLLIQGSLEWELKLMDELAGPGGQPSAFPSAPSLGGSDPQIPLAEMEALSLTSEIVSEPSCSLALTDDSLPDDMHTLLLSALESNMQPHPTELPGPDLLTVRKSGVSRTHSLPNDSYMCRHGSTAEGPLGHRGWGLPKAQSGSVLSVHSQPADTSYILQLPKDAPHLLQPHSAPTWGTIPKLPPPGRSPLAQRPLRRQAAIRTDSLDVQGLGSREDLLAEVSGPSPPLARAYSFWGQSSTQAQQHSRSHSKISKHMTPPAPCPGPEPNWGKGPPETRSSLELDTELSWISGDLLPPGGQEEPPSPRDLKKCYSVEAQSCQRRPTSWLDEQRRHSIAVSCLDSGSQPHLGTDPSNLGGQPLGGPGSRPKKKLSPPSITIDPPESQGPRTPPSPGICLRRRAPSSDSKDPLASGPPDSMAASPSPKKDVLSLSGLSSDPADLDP

[2] = target: T2, human α1H T-type channels (Homo sapiens, UniProt O95180); assay: T-type calcium channel block, whole cell patch clamp in HEK cells (α1H); format: cell-based; settings: HEK cells, patch clamp, mainly non-inactivated protocol; values above 10 μM shown as 10 μM; read-out: T-type Calcium Channel Block α1H IC50
T2 construct: expressed in transfected cells; host or cells: HEK 293
T2 sequence (O95180 whole entry): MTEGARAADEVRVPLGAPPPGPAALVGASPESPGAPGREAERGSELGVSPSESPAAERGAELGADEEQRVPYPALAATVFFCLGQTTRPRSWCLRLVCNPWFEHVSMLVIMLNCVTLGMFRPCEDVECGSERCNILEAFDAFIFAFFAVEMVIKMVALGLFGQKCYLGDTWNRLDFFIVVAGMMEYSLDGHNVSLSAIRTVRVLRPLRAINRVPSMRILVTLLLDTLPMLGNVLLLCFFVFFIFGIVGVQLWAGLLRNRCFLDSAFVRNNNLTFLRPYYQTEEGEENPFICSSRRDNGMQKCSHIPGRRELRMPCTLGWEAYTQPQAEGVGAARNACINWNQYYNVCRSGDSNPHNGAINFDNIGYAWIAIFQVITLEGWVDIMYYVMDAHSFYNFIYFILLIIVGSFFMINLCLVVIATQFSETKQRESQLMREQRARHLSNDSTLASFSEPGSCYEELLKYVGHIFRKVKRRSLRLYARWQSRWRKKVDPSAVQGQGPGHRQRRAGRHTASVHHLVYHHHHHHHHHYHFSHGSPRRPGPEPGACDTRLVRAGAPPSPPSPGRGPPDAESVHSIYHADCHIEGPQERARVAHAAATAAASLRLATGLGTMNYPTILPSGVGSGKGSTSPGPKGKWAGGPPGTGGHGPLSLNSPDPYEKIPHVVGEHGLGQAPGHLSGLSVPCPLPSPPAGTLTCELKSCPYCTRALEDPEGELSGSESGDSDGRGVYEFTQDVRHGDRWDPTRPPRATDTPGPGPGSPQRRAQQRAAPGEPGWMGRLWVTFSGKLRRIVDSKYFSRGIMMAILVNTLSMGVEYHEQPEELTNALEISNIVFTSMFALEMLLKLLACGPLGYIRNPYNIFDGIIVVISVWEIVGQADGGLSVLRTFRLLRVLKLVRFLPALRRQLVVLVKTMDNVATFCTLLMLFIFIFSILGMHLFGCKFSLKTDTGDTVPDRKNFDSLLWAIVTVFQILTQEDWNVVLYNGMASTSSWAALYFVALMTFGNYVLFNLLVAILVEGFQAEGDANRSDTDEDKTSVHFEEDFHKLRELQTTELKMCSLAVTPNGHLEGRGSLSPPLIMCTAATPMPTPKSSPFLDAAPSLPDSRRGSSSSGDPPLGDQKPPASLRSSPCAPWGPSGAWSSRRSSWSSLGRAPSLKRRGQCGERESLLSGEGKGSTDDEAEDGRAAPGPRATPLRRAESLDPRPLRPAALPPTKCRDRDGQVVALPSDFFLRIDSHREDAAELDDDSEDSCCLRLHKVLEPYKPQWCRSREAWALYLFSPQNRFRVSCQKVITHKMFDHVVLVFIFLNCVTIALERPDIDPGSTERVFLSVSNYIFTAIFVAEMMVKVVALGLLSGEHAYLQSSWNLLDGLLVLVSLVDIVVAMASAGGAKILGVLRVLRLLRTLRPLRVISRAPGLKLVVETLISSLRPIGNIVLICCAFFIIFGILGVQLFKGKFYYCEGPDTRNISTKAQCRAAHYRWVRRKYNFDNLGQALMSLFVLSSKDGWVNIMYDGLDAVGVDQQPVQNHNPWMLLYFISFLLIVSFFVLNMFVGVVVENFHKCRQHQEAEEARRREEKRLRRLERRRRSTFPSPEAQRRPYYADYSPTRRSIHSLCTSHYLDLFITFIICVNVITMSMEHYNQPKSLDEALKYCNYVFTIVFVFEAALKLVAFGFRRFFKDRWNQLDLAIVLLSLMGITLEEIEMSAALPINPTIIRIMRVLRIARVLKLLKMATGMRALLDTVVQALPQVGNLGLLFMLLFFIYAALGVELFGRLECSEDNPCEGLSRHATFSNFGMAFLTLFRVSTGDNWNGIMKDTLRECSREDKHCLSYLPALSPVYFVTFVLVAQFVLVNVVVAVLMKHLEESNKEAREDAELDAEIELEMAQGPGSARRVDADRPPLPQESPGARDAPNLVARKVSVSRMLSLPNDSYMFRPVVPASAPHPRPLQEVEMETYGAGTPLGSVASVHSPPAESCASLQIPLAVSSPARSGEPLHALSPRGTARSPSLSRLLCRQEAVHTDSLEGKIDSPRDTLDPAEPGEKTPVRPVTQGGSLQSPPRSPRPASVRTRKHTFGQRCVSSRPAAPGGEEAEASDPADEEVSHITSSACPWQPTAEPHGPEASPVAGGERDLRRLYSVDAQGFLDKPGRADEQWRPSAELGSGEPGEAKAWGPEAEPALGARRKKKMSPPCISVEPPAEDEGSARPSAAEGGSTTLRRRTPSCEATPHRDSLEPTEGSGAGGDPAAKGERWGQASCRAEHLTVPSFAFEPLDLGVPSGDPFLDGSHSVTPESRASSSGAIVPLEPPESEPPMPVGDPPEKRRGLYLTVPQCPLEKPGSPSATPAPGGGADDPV

Row | SMILES | pIC50 [1] | pIC50 [2]
1 | CC(C)(C)C(=O)NCCN1CCC(CNC(=O)c2cc(F)cc(Cl)c2)CC1 [Compound 309, 3-chloro-5-fluoro-N-((1-(2-pivalamidoethyl)piperidin-4-yl)methyl)benzamide] | 6.07 | 6.46
2 | CC(C)(C)C(=O)NCCN1CCC(CNC(=O)c2cc(C(F)(F)F)ccn2)CC1 [Compound 310, N-((1-(2-pivalamidoethyl)piperidin-4-yl)methyl)-4-(trifluoromethyl) picolinamide] | < 5.00 | < 5.00
3 | O=C(CCC(F)(F)F)NCCN1CCC(CNC(=O)c2cccc(OC(F)(F)F)c2)CC1 [Compound 311, N-((1-(2-(4,4,4-trifluorobutanamido)ethyl)piperidin-4-yl)methyl)-3-(trifluoromethoxy) benzamide] | 5.58 | 6.48
4 | Cc1cc(C)cc(C(=O)NCC2CCN(CCNC(=O)CCC(F)(F)F)CC2)c1 [Compound 312, 3,5-dimethyl-N-((1-(2-(4,4,4-trifluorobutanamido)ethyl)piperidin-4-yl)methyl)benzamide] | 5.37 | 6.12
5 | O=C(CCC(F)(F)F)NCCN1CCC(CNC(=O)c2cccc(C(F)(F)F)c2)CC1 [Compound 313, N-((1-(2-(4,4,4-trifluorobutanamido)ethyl)piperidin-4-yl)methyl)-3-(trifluoromethyl)benzamide] | 5.20 | 6.21
6 | O=C(/C=C/c1cc(F)cc(F)c1)NCC1CCN(CCNC(=O)CCC(F)(F)F)CC1 [Compound 314, (E)-N-(2-(4-((3-(3,5-difluorophenyl)acrylamido)methyl)piperidin-1-yl)ethyl)-4,4,4-trifluorobutanamide] | < 5.00 | 5.03
7 | O=C(CCC(F)(F)F)NCCN1CCC(CNC(=O)c2cccc(Cl)c2)CC1 [Compound 315, 3-chloro-N-((1-(2-(4,4,4-trifluorobutanamido)ethyl)piperidin-4-yl)methyl)benzamide] | 5.00 | 5.83
8 | O=C(/C=C/c1cc(Cl)cc(Cl)c1)NCC1CCN(CCNC(=O)CCC(F)(F)F)CC1 [Compound 316, (E)-N-(2-(4-((3-(3,5-dichlorophenyl)acrylamido)methyl)piperidin-4-1-yl)ethyl)-4,4,4-trifluorobutanamide] | < 5.00 | 5.23
9 | COc1cc(C(=O)NCC2CCN(CCNC(=O)CCC(F)(F)F)CC2)cc(C(F)(F)F)c1 [Compound 317, 3-methoxy-N-((1-(2-(4,4,4-trifluorobutanamido)ethyl)piperidin-4-yl)methyl)-5-(trifluoromethyl)benzamide] | 6.18 | 6.25
10 | COc1cc(F)cc(C(=O)NCC2CCN(CCNS(=O)(=O)C(C)C)CC2)c1 [Compound 318, 3-fluoro-5-methoxy-N-((1-(2-(1-methylethylsulfonamido)ethyl)piperidin-4-yl)methyl)benzamide] | 6.30 | 6.06
11 | CC(C)S(=O)(=O)NCCN1CCC(CNC(=O)c2cc(Br)cc(Br)c2)CC1 [Compound 319, 3,5-dibromo-N-((1-(2-(1-methylethylsulfonamido)ethyl)piperidin-4-yl)methyl)benzamide] | > 6.52 | 6.82
12 | COc1cc(Cl)cc(C(=O)NCC2CCN(CCNS(=O)(=O)C(C)C)CC2)c1 [Compound 320, 3-chloro-5-methoxy-N-((1-(2-(1-methylethylsulfonamido)ethyl)piperidin-4-yl)methyl)benzamide] | 6.12 | 5.79
13 | COc1cc(F)cc(C(=O)NCC2CCN(CCNS(=O)(=O)C3CC3)CC2)c1 [Compound 321, N-((1-(2-(cyclopropanesulfonamido)ethyl)piperidin-4-yl)methyl)-3-fluoro-5-methoxybenzamide] | 5.88 | 5.72
14 | COc1cc(Cl)cc(C(=O)NCC2CCN(CCNS(=O)(=O)C3CC3)CC2)c1 [Compound 322, 3-chloro-N-((1-(2-(cyclopropanesulfonamido)ethyl)piperidin-4-yl)methyl)-5-methoxybenzamide] | 5.39 | 5.67
15 | O=C(NCC1CCN(CCNS(=O)(=O)C2CC2)CC1)c1cccc(Br)c1 [Compound 323, 3-bromo-N-((1-(2-(cyclopropanesulfonamido)ethyl)piperidin-4-yl)methyl)benzamide] | 5.73 | 5.58
16 | COc1ccc(C(=O)NCC2CCN(CCNS(=O)(=O)C3CC3)CC2)cc1OC [Compound 324, N-((1-(2-(cyclopropanesulfonamido)ethyl)piperidin-4-yl)methyl)-3,4-dimethoxybenzamide] | < 5.00 | < 5.00
17 | COc1cc(F)cc(C(=O)NCC2CCN(CCNS(=O)(=O)C(F)(F)F)CC2)c1 [Compound 325, 3-fluoro-5-methoy-N-((1-(2-(trifluoromethylsulfonamido)ethyl)piperidin-4-yl)methyl)benzamide] | 5.18 | 5.47
18 | COc1cc(Cl)cc(C(=O)NCC2CCN(CCNS(=O)(=O)C(F)(F)F)CC2)c1 [Compound 326, 3-chloro-5-methoxy-N-((1-(2-(trifluoromethylsulfonamido)ethyl)piperidin-4-yl)methyl)benzamide] | < 5.00 | 5.16
19 | COc1cc(C(=O)NCC2CCN(CCNS(=O)(=O)C(F)(F)F)CC2)cc(C(F)(F)F)c1 [Compound 327, 3-methoxy-5-(trifluoromethyl)-N-((1-(2-(trifluoromethylsulfonamido)ethyl)piperidin-4-yl)methyl)benzamide] | > 6.52 | 6.13
20 | O=C(NCC1CCN(CCNS(=O)(=O)C(F)(F)F)CC1)c1ccc(C(F)(F)F)c(F)c1 [Compound 328, 3-fluoro-4-(trifluoromethyl)-N-((1-(2-(trifluoromethylsulfonamido)ethyl)piperidin-4-yl)methyl)benzamide] | 5.99 | 5.81
21 | O=C(NCC1CCN(CCNS(=O)(=O)C(F)(F)F)CC1)c1cc(F)cc(Cl)c1 [Compound 329, 3-chloro-5-fluoro-N-((1-(2-(trifluoromethylsulfonamido)ethyl)piperidin-4-yl)methyl)benzamide] | 5.49 | 5.39
22 | O=C(NCC1CCN(CCNS(=O)(=O)C(F)(F)F)CC1)c1cccc(Br)c1 [Compound 330, 3-bromo-N-((1-(2-(trifluoromethylsulfonamido)ethyl)piperidin-4-yl)methyl)benzamide] | < 5.00 | < 5.00
23 | Cc1cc(F)cc(C(=O)NCC2CCN(CCNS(=O)(=O)C(F)(F)F)CC2)c1 [Compound 331, 3-fluoro-5-methyl-N-((1-(2-(trifluoromethylsulfonamido)ethyl)piperidin-4-yl)methyl)benzamide] | < 5.00 | < 5.00
24 | O=C(NCC1CCN(CCNS(=O)(=O)C2CC2)CC1)c1cc(Cl)sc1Cl [Compound 333, 2,5-dichloro-N-((1-(2-(cyclopropanesulfonamido)ethyl)piperidin-4-yl)methyl)thiophene-3-carboxamide] | 6.10 | 5.62
25 | CC(C)(F)C(=O)NCCN1CCC(CNC(=O)c2cc(C(F)(F)F)cc(C(F)(F)F)c2)CC1 [Compound 335, N-((1-(2-(2-fluoro-2-methylpropanamido)ethyl)piperidin-4-yl)methyl)-3,5-bis(trifluoromethyl) benzamide] | 6.48 | 6.51
